{"source": "patent US20250302720A1", "about": "“PEPTIDE-BASED HAIR TREATMENT” (Sederma, priority 2020, published 2025)", "key": {"[1]": {"test_system": "Normal human melanocytes (NHM)", "assay": "Reduction of the ROS quantity in NHM (DCFH-DA probe, with or without H2O2 stress)", "format": "cell-based", "conditions": "for ROS quantity, variation: 24 h, vs control, n = 3", "description": "Normal human melanocytes (NHM) almost at confluence are brought into contact with the peptide according to the invention for 24 hours. At the end of this contact, the cells are contacted with a DCFH-DA probe which is inserted into these cells. After rinsing to remove the excess probe, the cells are placed in contact with H2O2 to mimic oxidative stress. A case without oxidative stress is also realized. The reaction of H2O2 with the probe in the cell is measured by fluorescence. An estimate of the quantity of cells is carried out in parallel to harmonize the results."}, "MC1R": {"test_system": "MC1R", "assay": "MC1R labelling by immunohistology in isolated hair follicles", "format": "cell-based, human", "conditions": "10 ppm, 8 days", "description": "Follicles comprising their bulb with little pigment and isolated from a scalp plasty (resulting from cosmetic surgery— donor, dark blond; person) are placed individually in the wells of a culture plate containing the culture medium and maintained for survival (37° C.; 5% CO2).\nTwelve follicles are reserved for T0 to serve as a reference for visual estimation and quantification of pigmentation but also for subsequent labeling of MC1R and MITF by immunohistology (six follicles for each marker).\nTwelve follicles are placed in contact with the peptide according to the invention at 10 ppm in its solvent and twelve others in contact with the solvent alone for 8 days (0.1% DMSO in culture medium). At 8 days, all the follicles are stopped and fixed, then sectioned (7 μm) and marked with alunated carmine and photographed under a microscope. Sections of 6 of them (for each group) are used for visual and quantitative assessment by image analysis of their pigmentation (with specific filter to measure melanin). Sections of the other 6 are used for MC1R and MITF scoring, which is to be assessed by visual estimation."}}, "note": "Residues, ends and D or L forms follow the SMILES beside them."}
{"smiles": "CCCCCCCCCCCCCCCC(=O)N1CCC[C@H]1C(=O)N1CCC[C@H]1C(=O)O", "note": "[Pal-PP-OH, palmitoyl-prolyl-proline] (HELM PEPTIDE1{[CCCCCCCCCCCCCCCC(=O)[*:2]].P.P}$$$$V2.0)", "values": [{"measurement": "ROS quantity, variation", "setting": "[1]; 10 ppm, after the H2O2 stress", "result": "−25%; p < 0.01"}, {"measurement": "ROS quantity, variation", "setting": "[1]; 10 ppm, without H2O2 stress (basal state)", "result": "−23%; p < 0.01"}, {"measurement": "ROS quantity, variation", "setting": "[1]; 12.5 ppm, after the H2O2 stress", "result": "−33%; p < 0.01"}, {"measurement": "ROS quantity, variation", "setting": "[1]; 12.5 ppm, without H2O2 stress (basal state)", "result": "−24%; p < 0.01"}, {"measurement": "reduction of the production of intracellular peroxide", "setting": "[1]; during oxidative stress, vs. control", "result": 33, "unit": "%"}, {"measurement": "MC1R in the lower sheaths, visual estimation vs control", "setting": "MC1R", "result": "increased more"}, {"measurement": "MC1R in the bulb, visual estimation compared to T0", "setting": "MC1R; stable in the control case", "result": "increased"}]}
